{"source": "patent US7790706B2", "about": "“Treatment of inflammation with 5α reduced metabolites” (The University of Edinburgh, priority 2002, dated 2010)", "key": {"[1]": {"test_system": "glucocorticoid receptors (GR) in hepatocytes", "test": "Binding to glucocorticoid receptor in hepatocytes (3H-dexamethasone displacement)", "conditions": "24° C., 1 h, compared with corticosterone (B)", "description": "Hepatocytes were incubated at 24° C. for 1 h in the presence of ^3H-dexamethasone and increasing concentrations of dexamethasone in the concentration range 0.632 nM to 200 μM. Cells were harvested and the radioactivity bound was determined by β-scintillation counting. *=p<0.001 versus B. The results are shown in FIG. 1."}, "[2]": {"biological_target": "T1, glucocorticoid receptor (GR) (Homo sapiens, UniProt P04150)", "T1 construct": "expressed in transfected cells; host or cells: HeLa cells", "T1 sequence (P04150 1-777)": "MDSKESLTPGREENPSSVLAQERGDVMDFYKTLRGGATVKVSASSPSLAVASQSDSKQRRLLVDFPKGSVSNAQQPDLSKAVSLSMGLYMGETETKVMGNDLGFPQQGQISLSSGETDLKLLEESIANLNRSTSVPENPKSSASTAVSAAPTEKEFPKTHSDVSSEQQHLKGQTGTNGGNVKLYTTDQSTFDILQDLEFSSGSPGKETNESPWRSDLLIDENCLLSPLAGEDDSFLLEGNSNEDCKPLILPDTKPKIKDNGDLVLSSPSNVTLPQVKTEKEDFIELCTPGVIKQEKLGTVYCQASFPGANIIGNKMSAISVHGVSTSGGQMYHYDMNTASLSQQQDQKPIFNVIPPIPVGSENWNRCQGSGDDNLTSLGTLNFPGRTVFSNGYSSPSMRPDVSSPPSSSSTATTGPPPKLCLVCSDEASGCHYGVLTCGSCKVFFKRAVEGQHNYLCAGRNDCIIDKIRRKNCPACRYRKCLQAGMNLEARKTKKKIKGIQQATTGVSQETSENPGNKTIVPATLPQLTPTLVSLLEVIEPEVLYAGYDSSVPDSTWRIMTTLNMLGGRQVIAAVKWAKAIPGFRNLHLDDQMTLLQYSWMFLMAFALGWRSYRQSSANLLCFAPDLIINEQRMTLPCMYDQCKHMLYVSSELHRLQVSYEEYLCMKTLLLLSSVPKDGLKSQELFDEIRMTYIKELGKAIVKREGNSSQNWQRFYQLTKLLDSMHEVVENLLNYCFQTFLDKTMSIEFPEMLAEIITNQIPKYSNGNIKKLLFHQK", "test": "GR activation reporter: Hela cells transfected with GR and MMTV-luciferase", "type": "cell-based", "conditions": "for luciferase induction in response to activation of GR: Hela cells transfected with GR and MMTV-luciferase; for luciferase induction in response to activation of GR / luciferase induction in cells without GR / Induction of luciferase (GR activation), Example 5: 1 micromol/l; for luciferase induction in cells without GR: Hela cells transfected with luciferase but without GR", "description": "Comparative potency Fold induction of luciferase activity as a consequence of GR activation in Hela cells transfected with GR and luciferase under the control of a GRE and MMTV promoter (n=3). All steroids at 1 μM. Dex=dexamethasone; B=corticosterone; αDHB=5α-dihydrocorticosterone; αTHB=5α-tetrahydrocorticosterone; βDHB=5β-dihydrocorticosterone; βTHB=5β-tetrahydrocorticosterone. *indicates p<0.05 and ***p<0.001 in comparison with corticosterone. 5α-reduced metabolites of corticosterone activate glucocorticoid receptors with similar potency as corticosterone (B). […] 5β-reduced metabolites have no effect.\nDose response. Fold induction of luciferase activity as a consequence of GR activation in Hela cells transfected with GR and luciferase under the control of a GRE and MMTV promoter (n=3).\nCorticosterone (B) and 5α-tetrahydrocorticosterone (5αTHB) or vehicle (LTR) were added to the medium (with final steroid concentrations of 1 micromol/l) of Hela cells transfected with GR and a plasmid expressing luciferase under the control of an MMTV glucocorticoid responsive promoter (grey bars) and in transfected cells with luciferase but without GR (open bars).\nHeLa cells were transfected with glucocorticoid receptor (GR) and MMTV-luciferase (LTR) as a glucocorticoid sensitive reporter. Induction of luciferase was measured in response to addition of 5α-tetrahydrocorticosterone (5α-THB) with and without corticosterone (B). Data (mean±SEM, n=6) show responses to individual steroids, then the additive responses predicted (Sum) and observed (Actual).\nHeLa cells were transfected with glucocorticoid receptor (GR) and MMTV-luciferase (LTR) as a glucocorticoid sensitive reporter. Induction of luciferase was measured in response to addition of 1 micromol/l concentrations of corticosterone (B), cortisol (F), 5alpha-dihydrocortisol (DHF5a) and 5alpha-tetrahydrocortisol (THF5a)."}, "[3]": {"test_system": "tyrosine amino transferase (TAT) mRNA in H4iiE cells", "test": "Induction of tyrosine amino transferase (TAT) mRNA in H4iiE cells (Northern blot)", "type": "cell-based", "conditions": "1 micromol/l; for Induction of TAT mRNA: Northern blot corrected for U1; for Induction of TAT mRNA in presence of RU486: plus GR antagonist RU486", "description": "Induction of the glucocorticoid-responsive enzyme tyrosine amino transferase (TAT) mRNA was measured by Northern blot in H4iiE cells incubated in the presence of corticosterone (B, 1 micromol/l) or 5α-tetrahydrocorticosterone (5α-THB, 1 micromol/l) or vehicle."}, "ACTH levels": {"test_system": "ACTH levels", "test": "ACTH suppression in adrenalectomised rats", "type": "in vivo, Male lean Zucker rats", "conditions": "5 mg/kg intraperitoneal, 2 hours after injection, immunoassay", "description": "Male lean Zucker rats aged ˜9 weeks were adrenalectomised. 3 weeks later, samples were obtained by tail tipping before and for 3 hours after intraperitoneal injection of either vehicle, corticosterone (B, 5 mg/kg body weight) or 5alpha-tetrahydrocorticosterone (THB5a, 5 mg/kg body weight). […] This is consistent with activation of glucocorticoid receptors at sites responsible for feedback suppression of the hypothalamic-pituitary-adrenal axis (principally pituitary, hypothalamus and hippocampus)."}, "mouse aortic ring": {"test_system": "mouse aortic ring", "test": "Angiogenesis bioassay, aortic ring embedded in matrigel", "type": "cell-based", "conditions": "7 days; for number of new vessels forming (angiogenesis): B 600 nmol/l, 5alpha-THB 1000 nmol/l; for angiogenesis effect in presence of RU486: plus GR antagonist RU486", "description": "In this bioassay, the number of new vessels forming is measured over 7 days in a mouse aortic ring embedded in matrigel."}, "glucocorticoid receptors": {"biological_target": "T2, glucocorticoid receptors (Rattus norvegicus, UniProt P06536)", "T2 sequence (P06536 1-795)": "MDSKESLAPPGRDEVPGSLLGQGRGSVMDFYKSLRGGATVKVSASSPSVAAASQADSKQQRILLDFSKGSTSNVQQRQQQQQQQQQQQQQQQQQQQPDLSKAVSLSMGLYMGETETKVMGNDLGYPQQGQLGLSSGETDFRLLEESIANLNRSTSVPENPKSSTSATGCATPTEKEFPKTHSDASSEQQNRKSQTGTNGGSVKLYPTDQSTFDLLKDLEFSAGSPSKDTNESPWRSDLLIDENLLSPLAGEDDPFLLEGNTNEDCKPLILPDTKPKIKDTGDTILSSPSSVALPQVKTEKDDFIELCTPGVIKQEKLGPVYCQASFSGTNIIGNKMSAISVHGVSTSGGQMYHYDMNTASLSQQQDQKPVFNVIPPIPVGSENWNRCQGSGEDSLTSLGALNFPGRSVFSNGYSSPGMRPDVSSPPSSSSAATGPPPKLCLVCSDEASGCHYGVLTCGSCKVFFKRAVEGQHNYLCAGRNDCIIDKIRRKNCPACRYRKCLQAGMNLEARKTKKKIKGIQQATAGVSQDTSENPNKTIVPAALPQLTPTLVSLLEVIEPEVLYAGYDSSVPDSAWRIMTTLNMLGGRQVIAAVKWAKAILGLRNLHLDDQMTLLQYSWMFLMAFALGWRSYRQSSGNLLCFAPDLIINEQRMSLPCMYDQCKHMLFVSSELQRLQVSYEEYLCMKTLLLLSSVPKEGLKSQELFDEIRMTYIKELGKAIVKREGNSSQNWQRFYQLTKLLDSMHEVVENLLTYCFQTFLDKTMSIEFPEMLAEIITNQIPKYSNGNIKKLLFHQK", "conditions": "Carlstedt-Duke et al 1977; cited from earlier work"}, "[4]": {"test_system": "gluconeogenic enzymes in liver", "conditions": "Golf et al 1984; cited from earlier work"}, "[5]": {"test_system": "neuronal long-term potentiation", "conditions": "Dubrovsky et al 1987; cited from earlier work"}, "[6]": {"conditions": "Hela cells transfected with GR and GRE/MMTV-luciferase, n=3"}, "[7]": {"conditions": "HeLa cells, GR and MMTV-luciferase"}}, "note": "Entries after “also recorded” stand apart in the source; their conditions may differ.", "data": [{"smiles": "C[C@]12CC[C@@H](O)C[C@@H]1CC[C@@H]1[C@@H]2[C@@H](O)C[C@]2(C)[C@@H](C(=O)CO)CC[C@@H]12", "note": "[5α-tetrahydrocorticosterone]", "values": [{"measurement": "binding affinity for glucocorticoid receptors (GR)", "setting": "[1]", "value": "equivalent binding affinity"}, {"measurement": "agonist type at GR (observed versus predicted additive luciferase response)", "setting": "[2]; HeLa cells, GR and MMTV-luciferase, with and without corticosterone, n=6", "value": "full rather than partial agonist of GR"}, {"measurement": "Fold induction of luciferase activity as a consequence of GR activation (comparative potency)", "setting": "[2]; Hela cells transfected with GR and GRE/MMTV-luciferase, all steroids at 1 μM, n=3", "value": "more potent than 5α-dihydrocorticosterone"}, {"measurement": "Fold induction of luciferase activity as a consequence of GR activation (dose response)", "setting": "[2]; [6]", "value": "activate a glucocorticoid receptor-dependent response; also recorded: lesser effect than corticosterone"}, {"measurement": "luciferase induction in response to activation of GR", "setting": "[2]", "value": "activated GR"}, {"measurement": "luciferase induction in cells without GR", "setting": "[2]", "value": "abolished in the absence of transfected receptor"}, {"measurement": "Induction of TAT mRNA", "setting": "[3]", "value": "induced TAT mRNA transcription"}, {"measurement": "Induction of TAT mRNA in presence of RU486", "setting": "[3]", "value": "blocked"}, {"measurement": "ACTH levels compared with vehicle", "setting": "ACTH levels", "value": "significantly suppressed ACTH levels"}, {"measurement": "number of new vessels forming (angiogenesis)", "setting": "mouse aortic ring", "value": "prevents angiogenesis"}, {"measurement": "angiogenesis effect in presence of RU486", "setting": "mouse aortic ring", "value": "also blocked by RU486"}]}, {"smiles": "C[C@]12CCC(=O)C[C@@H]1CC[C@@H]1[C@@H]2[C@@H](O)C[C@]2(C)[C@@H](C(=O)CO)CC[C@@H]12", "note": "[5α-dihydrocorticosterone]", "values": [{"measurement": "binding affinity for glucocorticoid receptors (GR)", "setting": "[1]", "value": "lower binding affinities"}, {"measurement": "binding to glucocorticoid receptors, judged by displacement of bound dexamethasone", "setting": "glucocorticoid receptors", "value": "does not bind to glucocorticoid receptors"}, {"measurement": "activity of gluconeogenic enzymes in liver", "setting": "[4]", "value": "lowering activity of gluconeogenic enzymes in liver"}, {"measurement": "effect on neuronal long-term potentiation", "setting": "[5]", "value": "inhibition of neuronal long-term potentiation"}]}, {"smiles": "C[C@]12CCC(=O)C=C1CC[C@@H]1[C@@H]2[C@@H](O)C[C@@]2(C)[C@H]1CC[C@]2(O)C(=O)CO", "note": "[cortisol, reference compound]", "values": [{"measurement": "Induction of luciferase (GR activation), Example 5", "setting": "[2]; [7]", "value": "induced significant GR activation"}]}, {"smiles": "C[C@]12C[C@H](O)[C@H]3[C@@H](CCC4=CC(=O)CC[C@@]43C)[C@@H]1CC[C@@H]2C(=O)CO", "note": "[corticosterone, reference compound]", "values": [{"measurement": "Induction of luciferase (GR activation), Example 5", "setting": "[2]; [7]", "value": "induced significant GR activation"}, {"measurement": "Fold induction of luciferase activity as a consequence of GR activation (dose response)", "setting": "[2]; [6]", "value": "activate a glucocorticoid receptor-dependent response"}, {"measurement": "luciferase induction in response to activation of GR", "setting": "[2]", "value": "activated GR"}, {"measurement": "luciferase induction in cells without GR", "setting": "[2]", "value": "abolished in the absence of transfected receptor"}, {"measurement": "Induction of TAT mRNA", "setting": "[3]", "value": "induced TAT mRNA transcription"}, {"measurement": "Induction of TAT mRNA in presence of RU486", "setting": "[3]", "value": "blocked"}, {"measurement": "ACTH levels compared with vehicle", "setting": "ACTH levels", "value": "significantly suppressed ACTH levels"}, {"measurement": "number of new vessels forming (angiogenesis)", "setting": "mouse aortic ring", "value": "inhibits angiogenesis"}, {"measurement": "angiogenesis effect in presence of RU486", "setting": "mouse aortic ring", "value": "blocked"}]}, {"smiles": "C[C@]12CCC(=O)C[C@@H]1CC[C@@H]1[C@@H]2[C@@H](O)C[C@@]2(C)[C@H]1CC[C@]2(O)C(=O)CO", "note": "[5alpha-dihydrocortisol]", "values": [{"measurement": "Induction of luciferase (GR activation), Example 5", "setting": "[2]; [7]", "value": "induced significant GR activation"}]}, {"smiles": "C[C@]12CC[C@@H](O)C[C@@H]1CC[C@@H]1[C@@H]2[C@@H](O)C[C@@]2(C)[C@H]1CC[C@]2(O)C(=O)CO", "note": "[5alpha-tetrahydrocortisol]", "values": [{"measurement": "Induction of luciferase (GR activation), Example 5", "setting": "[2]; [7]", "value": "induced significant GR activation"}]}]}
